According to ChEMBL document CHEMBL1201862, “PubChem BioAssay data set” (2004):
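Method: 48-hour compound exposure of cells in 96-well plates, five concentrations, linear interpolation of endpoints. The concentration for 50% growth inhibition is given as GI50.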 The source made the active and inactive calls. No stated cut-off is given here; in the data, active = GI50 up to about 1.1 µM and inactive = higher.

Experiments:
Test in all cases: NCI tumour cell line growth inhibition, 48 h
SK-MEL-28 = test system: SK-MEL-28
TK-10 = test system: TK-10
SW-620 = test system: SW-620
SNB-78 = test system: SNB-78
CAKI-1 = test system: CAKI-1
NCI-H226 = test system: NCI-H226
SF-268 = test system: SF-268
LXFL 529 = test system: LXFL 529
MOLT-4 = test system: MOLT-4
HOP-92 = test system: HOP-92
HCT-15 = test system: HCT-15
UO-31 = test system: UO-31
CCRF-CEM = test system: CCRF-CEM
HCT-116 = test system: HCT-116
ACHN = test system: ACHN
A498 = test system: A498
DMS-273 = test system: DMS-273
SN12C = test system: SN12C
SK-MEL-2 = test system: SK-MEL-2
SNB-19 = test system: SNB-19
HOP-18 = test system: HOP-18
IGROV-1 = test system: IGROV-1
KM-20L2 = test system: KM-20L2
OVCAR-4 = test system: OVCAR-4
Malme-3M = test system: Malme-3M
DLD-1 = test system: DLD-1
HCC 2998 = test system: HCC 2998
UACC-62 = test system: UACC-62
OVCAR-8 = test system: OVCAR-8
HOP-62 = test system: HOP-62
SK-OV-3 = test system: SK-OV-3
SNB-75 = test system: SNB-75
EKVX = test system: EKVX
M14 = test system: M14
COLO 205 = test system: COLO 205
RXF 631 = test system: RXF 631
OVCAR-5 = test system: OVCAR-5
DMS-114 = test system: DMS-114
SK-MEL-5 = test system: SK-MEL-5
U-251 = test system: U-251
NCI-H23 = test system: NCI-H23
UACC-257 = test system: UACC-257
LOX IMVI = test system: LOX IMVI
A549 = test system: A549
786-0 = test system: 786-0
M19-MEL = test system: M19-MEL
SF-295 = test system: SF-295
NCI-H522 = test system: NCI-H522
K562 = test system: K562
HT-29 = test system: HT-29
OVCAR-3 = test system: OVCAR-3
HL-60 = test system: HL-60
SF-539 = test system: SF-539
RXF 393 = test system: RXF 393
RPMI-8226 = test system: RPMI-8226
SR = test system: SR
NCI-H460 = test system: NCI-H460
KM12 = test system: KM12

Measured: GI50

NNC(=O)N/N=C1/C(=O)N(c2ccc(Cl)c(Cl)c2)C(=O)C(=O)C1c1nc2ccccc2o1 (stereo unspecified)
> 100 µM: HCT-15
inactive: SK-MEL-28 > 100 µM | TK-10 > 100 µM | SW-620 > 100 µM | SNB-78 > 100 µM | CAKI-1 > 100 µM | NCI-H226 > 100 µM | SF-268 > 100 µM | LXFL 529 > 100 µM | MOLT-4 78.9 µM | HOP-92 > 100 µM | UO-31 > 100 µM | CCRF-CEM > 100 µM | HCT-116 > 100 µM | ACHN > 100 µM | A498 > 100 µM | DMS-273 > 100 µM | SN12C > 100 µM | SK-MEL-2 > 100 µM | SNB-19 29.5 µM | HOP-18 > 100 µM | IGROV-1 > 100 µM | KM-20L2 > 100 µM | OVCAR-4 > 100 µM | Malme-3M > 100 µM | DLD-1 > 100 µM | HCC 2998 > 100 µM | UACC-62 67.1 µM | OVCAR-8 > 100 µM | HOP-62 > 100 µM | SK-OV-3 > 100 µM | SNB-75 > 100 µM | EKVX 45.3 µM | M14 > 100 µM | COLO 205 > 100 µM | RXF 631 76.4 µM | OVCAR-5 > 100 µM | DMS-114 > 100 µM | SK-MEL-5 > 100 µM | U-251 > 100 µM | NCI-H23 > 100 µM | UACC-257 > 100 µM | LOX IMVI > 100 µM | A549 > 100 µM | 786-0 > 100 µM | M19-MEL > 100 µM | SF-295 > 100 µM | NCI-H522 62.4 µM | K562 > 100 µM | HT-29 > 100 µM | OVCAR-3 > 100 µM | HL-60 42.9 µM | SF-539 > 100 µM

CC(=O)[O-].Cc1ncc(CO)c(/C=N/NC(N)=S)c1[O-].[Zn+2]
> 100 µM: HCT-15
inactive: SK-MEL-28 > 100 µM | TK-10 > 100 µM | SW-620 > 100 µM | SNB-78 > 100 µM | NCI-H226 > 100 µM | SF-268 > 100 µM | LXFL 529 > 100 µM | MOLT-4 > 100 µM | UO-31 > 100 µM | CCRF-CEM > 100 µM | HCT-116 > 100 µM | ACHN > 100 µM | A498 > 100 µM | DMS-273 > 100 µM | SN12C > 100 µM | SK-MEL-2 > 100 µM | SNB-19 > 100 µM | HOP-18 > 100 µM | IGROV-1 > 100 µM | OVCAR-4 > 100 µM | Malme-3M > 100 µM | DLD-1 > 100 µM | HCC 2998 > 100 µM | UACC-62 > 100 µM | OVCAR-8 > 100 µM | HOP-62 > 100 µM | SK-OV-3 > 100 µM | SNB-75 > 100 µM | EKVX > 100 µM | M14 > 100 µM | COLO 205 > 100 µM | RXF 631 > 100 µM | OVCAR-5 > 100 µM | DMS-114 > 100 µM | SK-MEL-5 > 100 µM | RXF 393 > 100 µM | U-251 > 100 µM | NCI-H23 > 100 µM | UACC-257 > 100 µM | LOX IMVI > 100 µM | RPMI-8226 > 100 µM | A549 > 100 µM | 786-0 > 100 µM | M19-MEL > 100 µM | SF-295 > 100 µM | SR > 100 µM | NCI-H460 > 100 µM | K562 > 100 µM | HT-29 > 100 µM | OVCAR-3 > 100 µM | HL-60 > 100 µM | SF-539 > 100 µM

O=C1/C(=C/c2cccc([N+](=O)[O-])c2)COc2ccccc21
active: SW-620 1.11 µM | RPMI-8226 1.01 µM
inactive: SK-MEL-28 2.92 µM | TK-10 23 µM | SNB-78 6.53 µM | CAKI-1 5.33 µM | NCI-H226 3.86 µM | SF-268 8.99 µM | LXFL 529 2.43 µM | MOLT-4 2.31 µM | HOP-92 19.1 µM | UO-31 15.2 µM | CCRF-CEM 1.53 µM | HCT-116 1.76 µM | ACHN 5.13 µM | A498 40.8 µM | DMS-273 1.95 µM | SK-MEL-2 6.1 µM | SNB-19 2.82 µM | HOP-18 4.55 µM | IGROV-1 7.85 µM | KM-20L2 4.99 µM | OVCAR-4 2.49 µM | Malme-3M 16.1 µM | DLD-1 2.94 µM | UACC-62 1.67 µM | OVCAR-8 2.84 µM | HOP-62 11 µM | SK-OV-3 30.2 µM | SNB-75 13.1 µM | EKVX 25.6 µM | M14 1.83 µM | COLO 205 > 42.2 µM | RXF 631 6 µM | OVCAR-5 > 35 µM | DMS-114 2.84 µM | SK-MEL-5 2.32 µM | RXF 393 4.65 µM | U-251 2.62 µM | NCI-H23 6.76 µM | KM12 2.5 µM | UACC-257 7.69 µM | LOX IMVI 1.8 µM | A549 41.2 µM | 786-0 1.63 µM | M19-MEL 2.32 µM | SF-295 11.2 µM | NCI-H522 1.67 µM | NCI-H460 15.6 µM | K562 1.46 µM | HT-29 2.36 µM | OVCAR-3 2.79 µM | HL-60 2.08 µM | SF-539 4.42 µM
1.55 µM: HCT-15

Cc1ccc(S(=O)(=O)N/N=C\c2c3ccccc3[n+]([O-])c3ccccc23)cc1
active: LXFL 529 0.935 µM | MOLT-4 0.612 µM | CCRF-CEM 0.476 µM | HCT-116 0.472 µM | LOX IMVI 1.08 µM | RPMI-8226 0.415 µM | K562 0.36 µM | HL-60 0.889 µM
0.989 µM: HCT-15
inactive: SK-MEL-28 3.78 µM | TK-10 4.9 µM | SW-620 2.18 µM | SNB-78 6.71 µM | CAKI-1 6.28 µM | NCI-H226 4.54 µM | SF-268 4.23 µM | HOP-92 3.68 µM | UO-31 14.1 µM | ACHN 2.7 µM | A498 3.8 µM | DMS-273 3.41 µM | SN12C 4.59 µM | SK-MEL-2 4.41 µM | SNB-19 11.9 µM | HOP-18 6.76 µM | IGROV-1 9.25 µM | KM-20L2 2.96 µM | OVCAR-4 10.8 µM | Malme-3M 12.2 µM | DLD-1 2.65 µM | HCC 2998 8.57 µM | UACC-62 5.55 µM | OVCAR-8 4.03 µM | HOP-62 5.38 µM | SK-OV-3 14.7 µM | SNB-75 3.44 µM | EKVX 20 µM | M14 4.57 µM | COLO 205 2.72 µM | RXF 631 3.01 µM | OVCAR-5 14.7 µM | DMS-114 3.37 µM | SK-MEL-5 5.21 µM | U-251 3.93 µM | NCI-H23 4.48 µM | KM12 9.55 µM | UACC-257 9.95 µM | A549 5.12 µM | 786-0 2.01 µM | M19-MEL 7.67 µM | SF-295 6.76 µM | NCI-H522 2.02 µM | NCI-H460 2.44 µM | HT-29 1.63 µM | OVCAR-3 16.1 µM
